Broadly, the IC50 is the point on the concentration scale where inhibition reaches its midpoint. The low end stands for higher potency, the high end for lower potency.

This passage reports IC50 results from patent US20170081338A1, “SUBSTITUTED HETEROARYL COMPOUNDS AND METHODS OF USE” (Sunshine Lake Pharma Co., Ltd., priority 2015, published 2017).

The target in this assay is T1, FLT3 (h) (Homo sapiens, UniProt P36888).
T1 construct: purchased Millipore UK Ltd (contract assay service)
T1 sequence (P36888 27-993): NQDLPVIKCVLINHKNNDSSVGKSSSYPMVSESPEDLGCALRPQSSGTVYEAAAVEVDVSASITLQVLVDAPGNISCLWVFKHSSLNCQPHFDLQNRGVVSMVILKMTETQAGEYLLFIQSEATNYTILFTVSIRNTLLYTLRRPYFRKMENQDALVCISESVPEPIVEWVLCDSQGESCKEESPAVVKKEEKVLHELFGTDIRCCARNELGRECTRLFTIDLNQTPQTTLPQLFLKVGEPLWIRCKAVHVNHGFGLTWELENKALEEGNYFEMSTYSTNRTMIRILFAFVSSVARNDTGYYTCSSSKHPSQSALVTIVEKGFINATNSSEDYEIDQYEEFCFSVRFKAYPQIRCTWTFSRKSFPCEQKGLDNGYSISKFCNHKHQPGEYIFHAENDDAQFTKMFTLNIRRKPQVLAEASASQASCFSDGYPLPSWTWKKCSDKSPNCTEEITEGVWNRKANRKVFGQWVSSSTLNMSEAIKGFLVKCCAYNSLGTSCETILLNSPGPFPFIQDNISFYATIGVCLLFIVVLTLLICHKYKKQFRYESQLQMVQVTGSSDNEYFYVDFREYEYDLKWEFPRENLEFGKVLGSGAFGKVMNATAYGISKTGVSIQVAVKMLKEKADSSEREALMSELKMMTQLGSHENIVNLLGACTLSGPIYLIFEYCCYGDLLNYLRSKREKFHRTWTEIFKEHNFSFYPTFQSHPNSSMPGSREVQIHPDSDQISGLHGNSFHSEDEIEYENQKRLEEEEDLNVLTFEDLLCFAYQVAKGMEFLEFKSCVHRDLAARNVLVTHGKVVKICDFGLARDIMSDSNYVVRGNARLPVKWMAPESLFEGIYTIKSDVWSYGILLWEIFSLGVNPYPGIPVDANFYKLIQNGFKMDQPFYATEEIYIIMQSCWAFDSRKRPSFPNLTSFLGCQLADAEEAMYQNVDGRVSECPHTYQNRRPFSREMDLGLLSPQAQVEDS
Kind of assay: FLT3 (h) kinase assay. The assay is classed as biochemical. As to the method: Kinase assays can be performed by measurement of incorporation of γ-^33P ATP into immobilized myelin basic protein (MBP). High binding white 384 well plates (Greiner) are coated with MBP (Sigma #M-1891) by incubation of 60 μL/well of 20 μg/mL MBP in Tris-buffered saline (TBS; 50 mM Tris pH 8.0, 138 mM NaCl, 2.7 mM KCl) for 24 h at 4° C. Plates are washed 3× with 100 μL TBS. Kinase reactions are carried out in a total volume of 34 μL in kinase buffer (according to the need to make, for example, 5 mM Hepes pH 7.6, 15 mM NaCl, 0.01% bovine gamma globulin (Sigma #1-5506), 10 mM MgCl2, 1 mM DTT, 0.02% TritonX-100). Compound dilutions are performed in DMSO and added to assay wells to a final DMSO concentration of 1%. Each data point is measured in duplicate, and at least two duplicate assays are performed for each individual compound determination. […] A mixture of unlabeled ATP and γ-^33P ATP is added to start the reaction (2×10^6 cpm of γ-^33P ATP per well (3000 Ci/mmole) and 10 μM unlabeled ATP, typically. The reactions are carried out for 1 h at room temperature with shaking. Plates are washed 7× with TBS, followed by the addition of 50 µL/well scintillation fluid (Wallac). Plates are read using a Wallac Trilux counter. This is only one format of such assays; various other formats are possible, as known to one skilled in the art. […]

In the case of `CC(C)CS(=O)(=O)N[C@H]1COC2C1OC[C@H]2Nc1nc(Nc2cnn(C)c2)ncc1Cl` (stereo partly drawn) [Ex. 2, N-((3S,6R)-6-((5-chloro-2-((1-methyl-1H-pyrazol-4-yl)amino)pyrimidin-4-yl)amino)hexahydrofuro[3,2-b]furan-3-yl)-2-methylpropane-1-sulfonamide], half-maximal inhibition (IC50) required 846 nM.
